{"source": "patent US20210290644A1", "about": "“COMPOUNDS AND METHODS FOR TREATING FUNGAL INFECTIONS” (Amplyx Pharmaceuticals, Inc., priority 2018, published 2021)", "key": {"[1]": {"test": "Study #2 Phase 1: pharmacokinetics after single IV and single/multiple oral doses of Compound 1, absolute oral bioavailability;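 note: phase 1 study design: one IV dose, then escalating single oral doses, fed versus fasted single oral dosing, and once-daily oral dosing over 14 days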", "conditions": "for Tmax / half-life / AUC(0-t) / CL/F / Cmax / bioavailability / AUC(0-inf) / Vd/F: human, plasma", "description": "(§1) In the single ascending dose (SAD) phase, subjects in Cohort 1a received a single IV dose in Period A and then rising single oral doses in Periods B to D. Subjects in Cohort 1b received a single oral dose under fed and fasted conditions in Periods E and F. Subjects in Cohorts 2 and 3 received once-daily oral doses for 14 days, as did subjects in Cohort 4 as part of an in vivo screen for drug-drug interaction (DDI) potential.\n(§2) For SAD Cohorts 1a and 1b, urine samples for the determination of Compound 1A were collected through 48 hrs after dosing.\n(§3) Forty-six (46) subjects were enrolled into the study, 8 in Cohort 1a, 10 in Cohort 1b, and 8 each in Cohorts 2 and 3."}, "clinical": {"test": "clinical", "conditions": "human, plasma, po", "description": "as §1, §2, §3"}, "[2]": {"conditions": "oral Compound 1 QD × 14 days, 3 cohorts"}, "[3]": {"conditions": "single oral doses of Compound 1 100 mg to 500 mg, fasted"}}, "note": "Several values for one entry are separate records, joined by “and”; a condition that tells them apart may be missing. Equal values may be shown once.", "data": [{"smiles": "Nc1ncccc1-c1cc(Cc2ccc(COc3ccccn3)cc2)no1", "note": "[Compound 1A]", "values": [{"measurement": "Tmax", "setting": "[1]; oral, 500 mg, Tmax, Day 14, Cohort 2, 500 mg Tablets QD × 14 Days, fed, median", "value": 3.75, "unit": "h"}, {"measurement": "half-life", "setting": "[1]; oral, 500 mg, T½, Day 14, Cohort 2, 500 mg Tablets QD × 14 Days, fed, geometric mean", "value": 73.4, "unit": "h"}, {"measurement": "AUC(0-t)", "setting": "[1]; oral, 1000 mg, AUC(0-24), Day 1, Cohort 3, 1000 mg Tablets QD × 14 Days, fed, geometric mean", "value": 119, "unit": "µg·h/mL"}, {"measurement": "AUC(0-t)", "setting": "[1]; oral, 1000 mg, AUC(0-24), Day 7, Cohort 3, 1000 mg Tablets QD × 14 Days, fed, geometric mean", "value": 316, "unit": "µg·h/mL"}, {"measurement": "AUC(0-t)", "setting": "[1]; oral, 1000 mg, AUC(0-24), Day 14, Cohort 3, 1000 mg Tablets QD × 14 Days, fed, geometric mean", "value": 326, "unit": "µg·h/mL"}, {"measurement": "CL/F", "setting": "[1]; oral, 1000 mg, CL, Day 14, Cohort 3, 1000 mg Tablets QD × 14 Days, fed, geometric mean", "value": 0.582, "unit": "mL/min/kg"}, {"measurement": "Cmax", "setting": "[1]; oral, 1000 mg, Day 1, Cohort 3, 1000 mg Tablets QD × 14 Days, fed, geometric mean", "value": 10600, "unit": "ng/mL"}, {"measurement": "Cmax", "setting": "[1]; oral, 1000 mg, Day 7, Cohort 3, 1000 mg Tablets QD × 14 Days, fed, geometric mean", "value": 21300, "unit": "ng/mL"}, {"measurement": "Cmax", "setting": "[1]; oral, 1000 mg, Day 14, Cohort 3, 1000 mg Tablets QD × 14 Days, fed, geometric mean", "value": 21300, "unit": "ng/mL"}, {"measurement": "Tmax", "setting": "[1]; oral, 1000 mg, Tmax, Day 1, Cohort 3, 1000 mg Tablets QD × 14 Days, fed, median", "value": 4.5, "unit": "h"}, {"measurement": "Tmax", "setting": "[1]; oral, 1000 mg, Tmax, Day 7, Cohort 3, 1000 mg Tablets QD × 14 Days, fed, median", "value": 4, "unit": "h"}, {"measurement": "Tmax", "setting": "[1]; oral, 1000 mg, Tmax, Day 14, Cohort 3, 1000 mg Tablets QD × 14 Days, fed, median", "value": 3.77, "unit": "h"}, {"measurement": "half-life", "setting": "[1]; oral, 1000 mg, T½, Day 14, Cohort 3, 1000 mg Tablets QD × 14 Days, fed, geometric mean", "value": 52.6, "unit": "h"}, {"measurement": "bioavailability", "setting": "[1]; po, 100 mg", "value": 90.6, "unit": "%"}, {"measurement": "Tmax", "setting": "[1]; po, 100 mg, Tmax, 100 mg Oral Compound 1, fasted, median", "value": 2, "unit": "h"}, {"measurement": "AUC(0-inf)", "setting": "[1]; po, 300 mg", "value": 122, "unit": "µg·h/mL"}, {"measurement": "Vd/F", "setting": "[1]; po, 300 mg", "value": "142 L and 1.84 L/kg"}, {"measurement": "bioavailability", "setting": "[1]; po, 300 mg", "value": 93.1, "unit": "%"}, {"measurement": "AUC(0-t)", "setting": "[1]; po, 300 mg, AUC(0-24), 300 mg Oral Compound 1, fasted, geometric mean", "value": 35.6, "unit": "µg·h/mL"}, {"measurement": "AUC(0-t)", "setting": "[1]; po, 300 mg, AUC(0-t), 300 mg Oral Compound 1, fasted, geometric mean", "value": 118, "unit": "µg·h/mL"}, {"measurement": "CL/F", "setting": "[1]; po, 300 mg, CL/F, 300 mg Oral Compound 1, fasted, geometric mean", "value": 0.405, "unit": "mL/min/kg"}, {"measurement": "Cmax", "setting": "[1]; po, 300 mg, 300 mg Oral Compound 1, fasted, geometric mean", "value": 3750, "unit": "ng/mL"}, {"measurement": "Tmax", "setting": "[1]; po, 300 mg, Tmax, 300 mg Oral Compound 1, fasted, median", "value": 2.5, "unit": "h"}, {"measurement": "half-life", "setting": "[1]; po, 300 mg, t½, 300 mg Oral Compound 1, fasted, geometric mean", "value": 52.5, "unit": "h"}, {"measurement": "bioavailability", "setting": "[1]; po, 400 mg", "value": 101, "unit": "%"}, {"measurement": "Tmax", "setting": "[1]; po, 400 mg, Tmax, 400 mg Oral Compound 1, fasted, median", "value": 2.5, "unit": "h"}, {"measurement": "AUC(0-inf)", "setting": "[1]; po, 500 mg", "value": 205, "unit": "µg·h/mL"}, {"measurement": "Vd/F", "setting": "[1]; po, 500 mg", "value": "121 L and 1.62 L/kg"}, {"measurement": "bioavailability", "setting": "[1]; po, 500 mg", "value": 93.5, "unit": "%"}, {"measurement": "AUC(0-t)", "setting": "[1]; po, 500 mg, AUC(0-24), 500 mg Oral Compound 1, fasted, geometric mean", "value": 59, "unit": "µg·h/mL"}, {"measurement": "AUC(0-t)", "setting": "[1]; po, 500 mg, AUC(0-24), Day 1, Cohort 4, 500 mg Oral Solution QD × 14 Days, fed, geometric mean", "value": 56.7, "unit": "µg·h/mL"}, {"measurement": "AUC(0-t)", "setting": "[1]; po, 500 mg, AUC(0-24), Day 7, Cohort 4, 500 mg Oral Solution QD × 14 Days, fed, geometric mean", "value": 140, "unit": "µg·h/mL"}, {"measurement": "AUC(0-t)", "setting": "[1]; po, 500 mg, AUC(0-24), Day 14, Cohort 4, 500 mg Oral Solution QD × 14 Days, fed, geometric mean", "value": 153, "unit": "µg·h/mL"}, {"measurement": "AUC(0-t)", "setting": "[1]; po, 500 mg, AUC(0-t), 500 mg Oral Compound 1, fasted, geometric mean", "value": 197, "unit": "µg·h/mL"}, {"measurement": "CL/F", "setting": "[1]; po, 500 mg, CL, Day 14, Cohort 4, 500 mg Oral Solution QD × 14 Days, fed, geometric mean", "value": 0.555, "unit": "mL/min/kg"}, {"measurement": "CL/F", "setting": "[1]; po, 500 mg, CL/F, 500 mg Oral Compound 1, fasted, geometric mean", "value": 0.418, "unit": "mL/min/kg"}, {"measurement": "Cmax", "setting": "[1]; po, 500 mg, 500 mg Oral Compound 1, fasted, geometric mean", "value": 6410, "unit": "ng/mL"}, {"measurement": "Cmax", "setting": "[1]; po, 500 mg, Day 1, Cohort 4, 500 mg Oral Solution QD × 14 Days, fed, geometric mean", "value": 5850, "unit": "ng/mL"}, {"measurement": "Cmax", "setting": "[1]; po, 500 mg, Day 7, Cohort 4, 500 mg Oral Solution QD × 14 Days, fed, geometric mean", "value": 10400, "unit": "ng/mL"}, {"measurement": "Cmax", "setting": "[1]; po, 500 mg, Day 14, Cohort 4, 500 mg Oral Solution QD × 14 Days, fed, geometric mean", "value": 12300, "unit": "ng/mL"}, {"measurement": "Tmax", "setting": "[1]; po, 500 mg, Tmax, 500 mg Oral Compound 1, fasted, median", "value": 3, "unit": "h"}, {"measurement": "Tmax", "setting": "[1]; po, 500 mg, Tmax, Day 1, Cohort 4, 500 mg Oral Solution QD × 14 Days, fed, median", "value": 2, "unit": "h"}, {"measurement": "Tmax", "setting": "[1]; po, 500 mg, Tmax, Day 7, Cohort 4, 500 mg Oral Solution QD × 14 Days, fed, median", "value": 2, "unit": "h"}, {"measurement": "Tmax", "setting": "[1]; po, 500 mg, Tmax, Day 14, Cohort 4, 500 mg Oral Solution QD × 14 Days, fed, median", "value": 1, "unit": "h"}, {"measurement": "half-life", "setting": "[1]; po, 500 mg, T½, Day 14, Cohort 4, 500 mg Oral Solution QD × 14 Days, fed, geometric mean", "value": 55.4, "unit": "h"}, {"measurement": "half-life", "setting": "[1]; po, 500 mg, t½, 500 mg Oral Compound 1, fasted, geometric mean", "value": 44.9, "unit": "h"}, {"measurement": "half-life", "setting": "[1]; po, geometric mean t1/2, range across treatments, 4 oral treatments of Compound 1", "value": "44.9 to 64.7", "unit": "h"}, {"measurement": "Tmax", "setting": "[1]; po, median tmax, range across doses and study days, oral Compound 1 500 mg and 1000 mg QD × 14 days, fed", "value": "2 to 3", "unit": "h"}, {"measurement": "Tmax", "setting": "[1]; po, median tmax, range across doses, 4 single oral doses of Compound 1", "value": "2 to 3", "unit": "h"}, {"measurement": "median accumulation, ratio of AUC0-24 on Day 14 to Day 1", "setting": "[1]; [2]", "value": 2.95}, {"measurement": "median accumulation, ratio of Cmax on Day 14 to Day 1", "setting": "[1]; [2]", "value": 1.99}, {"measurement": "increase in geometric mean Cmax and AUC0-24 from 500 mg to 1000 mg", "setting": "[1]; oral QD × 14 days, Days 1, 7, and 14", "value": "~2", "unit": "fold"}, {"measurement": "slope of log-log AUC(inf) vs. dose (power model parameter b)", "setting": "[1]; [3]", "value": "1.04±0.046"}, {"measurement": "slope of log-log Cmax vs. dose (power model parameter b)", "setting": "[1]; [3]", "value": "0.935±0.077"}, {"measurement": "AUC(0-inf)", "setting": "clinical; 100 mg", "value": 39.6, "unit": "µg·h/mL"}, {"measurement": "CL/F", "setting": "clinical; 100 mg", "value": 0.417, "unit": "mL/min/kg"}, {"measurement": "Cmax", "setting": "clinical; 100 mg", "value": 1300, "unit": "ng/mL"}, {"measurement": "Vd/F", "setting": "clinical; 100 mg", "value": "138 L and 1.78 L/kg"}, {"measurement": "half-life", "setting": "clinical; 100 mg", "value": 49.5, "unit": "h"}, {"measurement": "AUC(0-inf)", "setting": "clinical; 400 mg", "value": 177, "unit": "µg·h/mL"}, {"measurement": "CL/F", "setting": "clinical; 400 mg", "value": 0.418, "unit": "mL/min/kg"}, {"measurement": "Cmax", "setting": "clinical; 400 mg", "value": 4250, "unit": "ng/mL"}, {"measurement": "Vd/F", "setting": "clinical; 400 mg", "value": "161 L and 2.35 L/kg"}, {"measurement": "half-life", "setting": "clinical; 400 mg", "value": 64.7, "unit": "h"}]}]}
